Measured values as given in patent publication US10266513B2 (Pfizer Inc., priority 2012, dated 2019).

molecular target: human full-length BTK Kinase (Homo sapiens (Human), UniProt Q06187); experiment: Human BTK LanthaScreen Assay (TR-FRET); format: biochemical; settings: 50 μM ATP, FAM-Srctide peptide substrate, read-out: BTK Inhibition IC50
Source text: Human BTK LanthaScreen Assay

human full-length BTK Kinase, sequence (Q06187 whole entry): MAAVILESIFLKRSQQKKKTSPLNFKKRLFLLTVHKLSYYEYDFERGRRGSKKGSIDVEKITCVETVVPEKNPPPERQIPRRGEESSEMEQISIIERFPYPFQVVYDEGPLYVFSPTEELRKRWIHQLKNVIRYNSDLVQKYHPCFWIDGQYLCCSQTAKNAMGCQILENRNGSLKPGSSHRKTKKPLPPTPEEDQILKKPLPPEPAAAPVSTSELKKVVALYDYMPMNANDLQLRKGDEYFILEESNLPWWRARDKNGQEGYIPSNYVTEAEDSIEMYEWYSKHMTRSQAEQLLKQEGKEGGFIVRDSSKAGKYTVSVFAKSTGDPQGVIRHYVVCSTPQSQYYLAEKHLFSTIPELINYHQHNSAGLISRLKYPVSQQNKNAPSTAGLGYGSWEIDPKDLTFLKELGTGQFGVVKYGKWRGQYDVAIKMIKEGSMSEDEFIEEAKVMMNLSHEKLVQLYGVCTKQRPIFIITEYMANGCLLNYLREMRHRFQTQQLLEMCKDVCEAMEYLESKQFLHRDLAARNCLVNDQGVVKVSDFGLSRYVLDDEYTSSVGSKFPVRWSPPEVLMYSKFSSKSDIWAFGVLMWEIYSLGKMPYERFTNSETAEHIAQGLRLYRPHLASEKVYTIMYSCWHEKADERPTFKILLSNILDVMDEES

SMILES | IC50 [nM]
C[C@H]1CC[C@@H](n2nc(-c3ccc(Oc4ccc(F)cc4F)cc3)c(C(N)=O)c2N)CN1C#N (relative stereo) [Example 121, 5-amino-1-[(3R*,6S*)-1-cyano-6-methylpiperidin-3-yl]-3-[4-(2,4-difluorophenoxy)phenyl]-1H-pyrazole-4-carboxamide] | 9.9
N#CN1CCCC(n2nc(-c3ccc(Oc4ccccc4)cc3)c(C(N)=O)c2N)C1 (single isomer, unassigned) [Example 3] | 3.3
N#CN1CCCC(n2nc(-c3ccc(Oc4ccc(Cl)cc4)cc3)c(C(N)=O)c2N)C1 (single isomer, unassigned) [Example 14] | 12.5
Cc1ccc(Oc2ccc(-c3nn(C4CCCN(C#N)C4)c(N)c3C(N)=O)cc2)cc1C (single isomer, unassigned) [Example 17] | 0.4
Cc1ccc(Oc2ccc(-c3nn(C4CCCN(C#N)C4)c(N)c3C(N)=O)cc2)cc1C (single isomer, unassigned) [Example 18] | 3
N#CN1CCCC(n2nc(-c3ccc(Oc4ccc(F)cc4F)cc3)c(C(N)=O)c2N)C1 (single isomer, unassigned) [Example 26] | 17.3
Cc1cc(F)ccc1Oc1ccc(-c2nn(C3CCCN(C#N)C3)c(N)c2C(N)=O)cc1 (single isomer, unassigned) [Example 33] | 24.1
Cc1cc(F)ccc1Oc1ccc(-c2nn(C3CCCN(C#N)C3)c(N)c2C(N)=O)cc1 (single isomer, unassigned) [Example 34] | 3.8
N#CN1CCCC(n2nc(-c3ccc(Oc4ccc(F)cc4Cl)cc3)c(C(N)=O)c2N)C1 (single isomer, unassigned) [Example 36] | 25.3
N#CN1CCCC(n2nc(-c3ccc(Oc4ccc(F)cc4Cl)cc3)c(C(N)=O)c2N)C1 (single isomer, unassigned) [Example 37] | 0.79
N#CN1CCC[C@@H](n2nc(-c3ccc(Cc4ccccc4F)cc3)c(C(N)=O)c2N)C1 (single isomer, unassigned) [Example 75] | 0.81
N#CN1CCCC(n2nc(-c3ccc(Cc4cccc(F)c4)cc3)c(C(N)=O)c2N)C1 (single isomer, unassigned) [Example 78] | 1.4
N#CN1CCCC(n2nc(-c3ccc(Cc4cccc(F)c4)cc3)c(C(N)=O)c2N)C1 (single isomer, unassigned) [Example 79] | 31
N#CN1CCCC(n2nc(-c3ccc(Cc4ccc(F)cc4F)cc3)c(C(N)=O)c2N)C1 (single isomer, unassigned) [Example 81] | 5.7
N#CN1CCCC(n2nc(-c3ccc(Cc4ccc(F)cc4F)cc3)c(C(N)=O)c2N)C1 (single isomer, unassigned) [Example 82] | 126
N#CN1CCCC(n2nc(-c3ccc(Cc4ccc(F)c(F)c4)cc3)c(C(N)=O)c2N)C1 (single isomer, unassigned) [Example 84] | 5.6
N#CN1CCCC(n2nc(-c3ccc(Cc4ccc(F)c(F)c4)cc3)c(C(N)=O)c2N)C1 (single isomer, unassigned) [Example 85] | 212
N#CN1CCCC(n2nc(-c3cccc(Oc4ccccc4)c3)c(C(N)=O)c2N)C1 (single isomer, unassigned) [Example 90] | 3.2
N#CN1CCCC(n2nc(-c3cccc(Oc4ccccc4)c3)c(C(N)=O)c2N)C1 (single isomer, unassigned) [Example 91] | 154
N#CN1CCCC(n2nc(-c3ccc(Oc4ccc(Cl)cn4)cc3)c(C(N)=O)c2N)C1 (single isomer, unassigned) [Example 109] | 128
Cc1ccc(Oc2ccc(-c3nn(C4CCCN(C#N)C4)c(N)c3C(N)=O)cc2)nc1 (single isomer, unassigned) [Example 113] | 264
Cc1ccc(Oc2ccc(-c3nn(C4CCCN(C#N)C4)c(N)c3C(N)=O)cc2)nc1 (single isomer, unassigned) [Example 114] | 10.1
N#CCN1CCCC(n2nc(-c3ccc(Oc4ccccc4)cc3)c(C(N)=O)c2N)C1 (stereo not drawn) [Example 4, 5-amino-1-[1-(cyanomethyl)piperidin-3-yl]-3-(4-phenoxyphenyl)-1H-pyrazole-4-carboxamide] | 35

SMILES | IC50 [nM]
N#CN1CCC(n2nc(-c3ccc(Oc4ccccc4)cc3)c(C(N)=O)c2N)CC1 [Example 5, 5-amino-1-(1-cyanopiperidin-4-yl)-3-(4-phenoxyphenyl)-1H-pyrazole-4-carboxamide] | 32.1
N#CN1CCC(n2nc(-c3ccc(Oc4ccccc4)cc3)c(C(N)=O)c2N)C1 (stereo not drawn) [Example 7, 5-amino-1-(1-cyanopyrrolidin-3-yl)-3-(4-phenoxyphenyl)-1H-pyrazole-4-carboxamide] | 16.2
N#CCN1CCC(n2nc(-c3ccc(Oc4ccccc4)cc3)c(C(N)=O)c2N)C1 (stereo not drawn) [Example 8, 5-amino-1-[1-(cyanomethyl)pyrrolidin-3-yl]-3-(4-phenoxyphenyl)-1H-pyrazole-4-carboxamide] | 16.5
N#CN1CC(n2nc(-c3ccc(Oc4ccccc4)cc3)c(C(N)=O)c2N)C1 [Example 9, 5-amino-1-(1-cyanoazetidin-3-yl)-3-(4-phenoxyphenyl)-1H-pyrazole-4-carboxamide] | 23.3
N#CN1CCOCC(n2nc(-c3ccc(Oc4ccccc4)cc3)c(C(N)=O)c2N)C1 (stereo not drawn) [Example 10, 5-amino-1-(4-cyano-1,4-oxazepan-6-yl)-3-(4-phenoxyphenyl)-1H-pyrazole-4-carboxamide] | 13.5
N#CN1CC2CC1CC2n1nc(-c2ccc(Oc3ccccc3)cc2)c(C(N)=O)c1N (stereo not drawn) [Example 11, 5-amino-1-(2-cyano-2-azabicyclo[2.2.1]hept-5-yl)-3-(4-phenoxyphenyl)-1H-pyrazole-4-carboxamide] | 5.9
N#CCN1CC2CC1CC2n1nc(-c2ccc(Oc3ccccc3)cc2)c(C(N)=O)c1N (stereo not drawn) [Example 12, 5-amino-1-[2-(cyanomethyl)-2-azabicyclo[2.2.1]hept-5-yl]-3-(4-phenoxyphenyl)-1H-pyrazole-4-carboxamide] | 54.2
N#CN1CCCC(n2nc(-c3ccc(Oc4ccc(Cl)cc4)cc3)c(C(N)=O)c2N)C1 (stereo not drawn) [Example 13, 5-amino-3-[4-(4-chlorophenoxy)phenyl]-1-(1-cyanopiperidin-3-yl)-1H-pyrazole-4-carboxamide] | 2.6
Cc1ccc(Oc2ccc(-c3nn(C4CCCN(C#N)C4)c(N)c3C(N)=O)cc2)cc1C (stereo not drawn) [Example 16, 5-amino-1-(1-cyanopiperidin-3-yl)-3-[4-(3,4-dimethylphenoxy)phenyl]-1H-pyrazole-4-carboxamide] | 1.28
Cc1ccc(Oc2ccc(-c3nn(C4CCCN(C#N)C4)c(N)c3C(N)=O)cc2)c(C)c1 (stereo not drawn) [Example 23, 5-amino-1-(1-cyanopiperidin-3-yl)-3-[4-(2,4-dimethylphenoxy)phenyl]-1H-pyrazole-4-carboxamide] | 9.2
CC(C)c1ccc(Oc2ccc(-c3nn(C4CCCN(C#N)C4)c(N)c3C(N)=O)cc2)cc1 (stereo not drawn) [Example 24, 5-amino-1-(1-cyanopiperidin-3-yl)-3-[4-(4-isopropylphenoxy)phenyl]-1H-pyrazole-4-carboxamide] | 5
N#CN1CCCC(n2nc(-c3ccc(Oc4ccc(F)cc4F)cc3)c(C(N)=O)c2N)C1 (stereo not drawn) [Example 25, 5-amino-1-(1-cyanopiperidin-3-yl)-3-[4-(2,4-difluorophenoxy)phenyl]-1H-pyrazole-4-carboxamide] | 2.18
Cc1cc(Oc2ccc(-c3nn(C4CCCN(C#N)C4)c(N)c3C(N)=O)cc2)ccc1F (stereo not drawn) [Example 31, 5-amino-1-(1-cyanopiperidin-3-yl)-3-[4-(4-fluoro-3-methylphenoxy)phenyl]-1H-pyrazole-4-carboxamide] | 2.8
Cc1cc(F)ccc1Oc1ccc(-c2nn(C3CCCN(C#N)C3)c(N)c2C(N)=O)cc1 (stereo not drawn) [Example 32, 5-amino-1-(1-cyanopiperidin-3-yl)-3-[4-(4-fluoro-2-methylphenoxy)phenyl]-1H-pyrazole-4-carboxamide] | 4.1
N#CN1CCCC(n2nc(-c3ccc(Oc4ccc(F)cc4Cl)cc3)c(C(N)=O)c2N)C1 (stereo not drawn) [Example 35, 5-amino-3-[4-(2-chloro-4-fluorophenoxy)phenyl]-1-(1-cyanopiperidin-3-yl)-1H-pyrazole-4-carboxamide] | 1.7
Cc1ccc(Oc2ccc(-c3nn(C4CCCN(C#N)C4)c(N)c3C(N)=O)cc2)c(Cl)c1 (stereo not drawn) [Example 38, 5-amino-3-[4-(2-chloro-4-methylphenoxy)phenyl]-1-(1-cyanopiperidin-3-yl)-1H-pyrazole-4-carboxamide] | 2.5
Cc1ccc(Oc2ccc(-c3nn(C4CCCN(C#N)C4)c(N)c3C(N)=O)cc2)c(F)c1 (stereo not drawn) [Example 39, 5-amino-1-(1-cyanopiperidin-3-yl)-3-[4-(2-fluoro-4-methylphenoxy)phenyl]-1H-pyrazole-4-carboxamide] | 1.1
Cc1cc(Oc2ccc(-c3nn(C4CCCN(C#N)C4)c(N)c3C(N)=O)cc2)ccc1Cl (stereo not drawn) [Example 40, 5-amino-3-[4-(4-chloro-3-methylphenoxy)phenyl]-1-(1-cyanopiperidin-3-yl)-1H-pyrazole-4-carboxamide] | 1.5
N#CN1CCCC(n2nc(-c3ccc(Oc4ccc(F)cc4)cc3)c(C(N)=O)c2N)C1 (stereo not drawn) [Example 41, 5-amino-1-(1-cyanopiperidin-3-yl)-3-[4-(4-fluorophenoxy)phenyl]-1H-pyrazole-4-carboxamide] | 6.3
Cc1ccc(Oc2ccc(-c3nn(C4CCCN(C#N)C4)c(N)c3C(N)=O)cc2)cc1 (stereo not drawn) [Example 42, 5-amino-1-(1-cyanopiperidin-3-yl)-3-[4-(4-methylphenoxy)phenyl]-1H-pyrazole-4-carboxamide] | 1.2
N#CN1CCCC(n2nc(-c3ccc(Oc4cc(F)ccc4F)cc3)c(C(N)=O)c2N)C1 (stereo not drawn) [Example 43, 5-amino-1-(1-cyanopiperidin-3-yl)-3-[4-(2,5-difluorophenoxy)phenyl]-1H-pyrazole-4-carboxamide] | 0.77
CC(C)Oc1ccc(Oc2ccc(-c3nn(C4CCCN(C#N)C4)c(N)c3C(N)=O)cc2)cc1 (stereo not drawn) [Example 44, 5-amino-1-(1-cyanopiperidin-3-yl)-3-[4-(4-isopropoxyphenoxy)phenyl]-1H-pyrazole-4-carboxamide] | 24.4
